Data reported in patent publication US20240336565A1, “SOLID FORMS OF OSANETANT” (Acer Therapeutics, Inc., priority 2021, published 2024).
“Also recorded” adds a separate entry of the source.

Columns and labels:
[1] = Disproportionation study (stirring in water, XRPD, pH of liquor); format: physicochemical; details: 10 mg in 1 mL of water, 24 h at 25° C.
Description: After 24 h total, a white slurry was observed and was isolated by centrifugation. The solids were analyzed by XRPD. The pH of the filtered liquor was measured at 5.63. […] After 24 h total, a white slurry was observed and was isolated by centrifugation. The solids were analyzed by XRPD. The pH of the filtered liquor was measured (pH=5.09).

[2] = Comparative studies: 7-day stability; format: physicochemical
[3] = Solid form stability observations (scale up / polymorph work: drying, ambient conditions, aqueous media); format: physicochemical
Description: Two anhydrous forms of the osanetant p-toluenesulfonic acid were synthesized. […] Form 6, described below, was a stable anhydrous form, but hydrated in water and aqueous solvent mixtures.
Advantageously, Form 1 (hydrate) and Form 6 (anhydrous) were stable on drying. Form 1 re-hydrated at room temperature and pressure after KF analysis, when it was heated in an oven to remove the water.
The experiment was cooled to 5° C. at a rate of 0.1° C./min and stirred at 5° C. for 18 h. The slurry was isolated be Buchner filtration: 42.5 mm Ø grade 1 Whatman filter paper; fast Filtration (<30 s); the cake was washed with 1 mL of ethyl acetate; the isolated solids were dried at 40° C. under vacuum for 72 h. […]

[4] = Long term stability: base (2M NaOH) at ambient temperature; format: physicochemical; details: 2M NaOH, dark, ambient, up to 14 days
Description: (§1) Osanetant p-toluenesulfonic acid Form 1 and osanetant benzenesulfonic acid Form 1 were tested for long-term stability across a number of different conditions, as detailed below.
Base at Ambient Temperature—Osanetant p-toluenesulfonic acid Form 1 and osanetant benzenesulfonic acid Form 1 were prepared at an osanetant content 10 times the normal working concentration then added to HPLC vials containing 2M NaOH and stored in the dark at ambient laboratory conditions. Samples were diluted to 2 mg/mL for analysis and were taken after T=1, 2, 4, 7, and 14 days storage. […] The purity of the resulting material is described in Table 44: […]

[5] = Long term stability: oxidation (6% H2O2) at 60° C.; format: physicochemical; details: 6% H2O2, 60° C., up to 14 days
Description: as §1
Oxidation at 60° C.—Osanetant p-toluenesulfonic acid Form 1 and osanetant benzenesulfonic acid Form 1 were prepared at an osanetant content 10 times the normal working concentration then added to HPLC vials containing 6% H2O2 and stored in a darkened oven at 60° C. Samples were diluted to 2 mg/mL for analysis and were taken after T=1, 2, 4, 7, and 14 days storage. […] The purity of the resulting material is described in Table 47: […]

[6] = Long term stability: acid stability (2M HCl) at ambient temperature; format: physicochemical; details: 2M HCl, dark, ambient, up to 14 days
Description: as §1
Acid Stability at Ambient Temperature-Osanetant p-toluenesulfonic acid Form 1 and osanetant benzenesulfonic acid Form 1 were prepared at an osanetant content 10 times the normal working concentration then added to HPLC vials containing 2M HCl and stored in the dark at ambient laboratory conditions. Samples were diluted to 2 mg/mL for analysis and were taken after T=1, 2, 4, 7, and 14 days storage. […] The purity of the resulting material is described in Table 42: […]

[7] = Long term stability: oxidation (6% H2O2) at ambient temperature; format: physicochemical; details: 6% H2O2, dark, ambient, up to 14 days
Description: as §1
Oxidation at Ambient Temperature-Osanetant p-toluenesulfonic acid Form 1 and osanetant benzenesulfonic acid Form 1 were prepared at an osanetant content 10 times the normal working concentration then added to HPLC vials containing 6% H2O2 and stored in the dark at ambient laboratory conditions. Samples were diluted to 2 mg/mL for analysis and were taken after T=1, 2, 4, 7, and 14 days storage. […] The purity of the resulting material is described in Table 46: […]

[8] = Long term stability: thermal stability of solids at 60° C.; format: physicochemical; details: solids, darkened oven at 60° C., up to 14 days
Description: as §1
Thermal stability of solids at 60° C.—Osanetant p-toluenesulfonic acid Form 1 and osanetant benzenesulfonic acid Form 1 were stored in a darkened oven at 60° C. in glass vials. Samples were taken after T=1, 2, 4, 7, and 14 days storage. […] The purity of the resulting material is described in Table 41: […]

[9] = Salt screen: XRPD of isolated solids after drying at 40° C. and at 40° C./75% RH; format: physicochemical
How it was run: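 Amorphous lyophilized osanetant (~20 mg) slurried with 1.05 mol eq. counterion in solvent, thermally cycled 5–40 °C at 0.1 °C/min overnight. Solids isolated by centrifugation and analysed by XRPD, then re-analysed after ~24 h drying at 40 °C and again after ~24 h at 40 °C/75% RH.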

[10] = Thermodynamic solubility in water and pH buffers

CC(=O)N(C)C1(c2ccccc2)CCN(CCC[C@]2(c3ccc(Cl)c(Cl)c3)CCCN(C(=O)c3ccccc3)C2)CC1.Cc1ccc(S(=O)(=O)O)cc1 [osanetant p-toluenesulfonic acid Form 1, (R)-N-(1-(3-(1-benzoyl-3-(3,4-dichlorophenyl)piperidin-3-yl)propyl)-4-phenylpiperidin-4-yl)-N-methylacetamide p-toluenesulfonic acid]
XRPD form / disproportionation after stirring in water [1]: no change in form; also recorded: did not disproportionate | pH of the filtered liquor [1]: 5.63 | impurities on 7-day stability ([2]; 80° C.): increase in impurities | solid form on 7-day stability ([2]; 7 days, elevated temperature where stated): form was retained | physical stability ([2]; in slurry at various water activity and pH, and at 40° C./75% RH and 80° C.): physically stable | form stability / re-hydration under ambient conditions ([3]; ambient conditions / room temperature and pressure): re-hydrated | dehydration temperature ([3]; dehydrates to Form 5): above 85 °C | form on drying ([3]; drying (40° C. under vacuum where stated)): stable; also recorded: no change | degradation on storage (purity) [4]: lack of degradation | degradation on storage (purity) [5]: lack of degradation | degradation on storage (purity) [6]: lack of degradation | degradation on storage (purity) [7]: lack of degradation | degradation on storage (purity) [8]: lack of degradation | XRPD after drying at 40° C./75% RH ([9]; after 40° C. drying, dried at 40° C./75% RH for about 24 h, label = form after 40° C. drying): retained; also recorded: stable; also recorded: Form 1 | XRPD after drying at 40° C. ([9]; isolated solids dried at 40° C. for about 24 h, label = wet form): retained; also recorded: Form 1 | Solubility in water and pH buffers [10]: low
